Experimental data as given in patent US20170173039A1, “COMPOSITIONS AND METHODS TO TREAT ADDICTION” (YALE UNIVERSITY, priority 2014, published 2017).
Where two headings read alike, the source gives them in different places.

Assays:
[1] = cited from earlier work
[2] = system: AMPA receptor; conditions: in vitro, rat hippocampal slices; cited from earlier work
[3] = in vivo; cited from earlier work
[4] = biological target: CYP3A4 (Homo sapiens, UniProt P08684); conditions: cited from earlier work
[5] = in vivo; cited from earlier work; remark: listed apart in the source
[6] = Effect of naltrexone on alcohol stimulation (BAES); format: in vivo, human; conditions: calculated from Ray et al. (Arch Gen Psychiatry 2007)
Method: No human studies have examined perampanel in psychiatric/substance-using populations. We calculated an effect size for naltrexone based on Ray et al. (Arch Gen Psychiatry. 2007; 64(9):1069-77), for the effect of naltrexone on stimulation (BAES) and will extrapolate this effect to perampanel. Based on this calculated effect size (d) of 0.45 (e.g. a moderate effect size), we should be able to show a significant difference between perampanel and placebo groups using a two-sided, […] t-test, with alpha=0.05 and power (1-Beta) of 0.80 with n=21 subjects in each experimental group (total N=42). We will recruit and enter N=50 subjects, in order to complete at least 42.

[7] = system: AMPA receptor; conditions: animal spinal neurons; cited from earlier work
[8] = cited from earlier work; remark: listed apart in the source
[9] = cited from earlier work; remark: listed apart in the source

CYP3A4, sequence (P08684 whole entry): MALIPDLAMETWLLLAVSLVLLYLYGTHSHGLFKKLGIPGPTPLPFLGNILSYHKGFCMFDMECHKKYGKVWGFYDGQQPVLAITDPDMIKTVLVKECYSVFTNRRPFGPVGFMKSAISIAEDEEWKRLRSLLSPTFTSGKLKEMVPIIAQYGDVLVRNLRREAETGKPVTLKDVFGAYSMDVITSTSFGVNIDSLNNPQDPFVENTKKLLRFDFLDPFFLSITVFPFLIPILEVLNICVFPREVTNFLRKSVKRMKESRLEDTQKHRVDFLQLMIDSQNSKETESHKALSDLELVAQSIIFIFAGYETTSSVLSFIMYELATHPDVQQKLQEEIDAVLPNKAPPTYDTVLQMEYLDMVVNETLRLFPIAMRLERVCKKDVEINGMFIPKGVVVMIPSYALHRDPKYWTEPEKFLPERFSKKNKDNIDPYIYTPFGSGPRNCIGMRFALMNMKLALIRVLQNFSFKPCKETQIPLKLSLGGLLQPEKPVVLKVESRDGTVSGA

SMILES	medication related adverse events/side effects ([1]; chronic dosing in epilepsy trials)	tolerability ([1]; human subjects, doses of 8 mg or 12 mg daily)	selectivity of action on the AMPA receptor [2]	blood-brain-barrier penetration [3]	metabolising enzyme [4]	bioavailability [5]	pharmacokinetic linearity [5]	effect size (d) on stimulation (BAES) [6]	selectivity of action on the AMPA receptor [7]	maximum tolerated single oral dose ([8]; healthy human subjects, single oral dose) [mg]	medication related adverse events/side effects ([8]; human, in vivo)	elimination half-life T1/2 ([9]; healthy volunteers)	absorption in the gastrointestinal system ([9]; orally active)	time to peak plasma concentration (Tmax) ([9]; post-ingestion)
N#Cc1ccccc1-c1cc(-c2ccccn2)cn(-c2ccccc2)c1=O [perampanel]	dizziness, somnolence, irritability, headache, fall, and ataxia	well tolerated	selective action	effectively penetrates the blood-brain-barrier	primarily metabolized by CYP3A4	about 100%	linear pharmacokinetics	–	–	–	–	–	–	–
O=C1CC[C@@]2(O)[C@H]3Cc4ccc(O)c5c4[C@@]2(CCN3CC2CC2)[C@H]1O5 [naltrexone]	–	–	–	–	–	–	–	0.45	–	–	–	–	–	–
CC(=O)N1N=C(c2ccc(N)cc2)c2cc3c(cc2C[C@H]1C)OCO3 [talampanel]	–	–	–	good blood-brain-barrier penetration	–	–	–	–	selective action	100	dizziness, sedation, and ataxia	approximately 4 hours	easily absorbed	approximately 2 hours
